Data from publication PMC7354631 (Toxins, 2020).
Read-outs that look alike come from different tables or passages of the source. Marks after values point to notes of the source that are not given here.

Legend:
[1] = tested on: Sudlow’s site II of human serum albumin (HSA); conditions: cited from earlier work
[2] = biological target: T1, human serum albumin (HSA) (Homo sapiens, UniProt P02768); type: binding
[3] = biological target: Sudlow’s site I of human serum albumin (HSA) (Homo sapiens, UniProt P02768); type: binding; conditions: for warfarin concentration in the filtrate (displacement from site I): pH 7.4
[4] = biological target: T1, human serum albumin (HSA); test: biochemical; type: binding
[5] = biological target: T1, human serum albumin (HSA); conditions: cited from earlier work
[6] = biological target: T1, human serum albumin (HSA); type: binding; remark: listed apart in the source
[7] = biological target: T1, human serum albumin (HSA); test: biochemical; type: binding; remark: listed apart in the source
bovine serum albumin = conditions: cited from earlier work
[8] = Ka (±SEM) (Hyperquad, Figure 3)
[9] = association constant of ochratoxin–HSA complex (approximate, summary)

Chain of Sudlow’s site I of human serum albumin (HSA) (P02768 25-609): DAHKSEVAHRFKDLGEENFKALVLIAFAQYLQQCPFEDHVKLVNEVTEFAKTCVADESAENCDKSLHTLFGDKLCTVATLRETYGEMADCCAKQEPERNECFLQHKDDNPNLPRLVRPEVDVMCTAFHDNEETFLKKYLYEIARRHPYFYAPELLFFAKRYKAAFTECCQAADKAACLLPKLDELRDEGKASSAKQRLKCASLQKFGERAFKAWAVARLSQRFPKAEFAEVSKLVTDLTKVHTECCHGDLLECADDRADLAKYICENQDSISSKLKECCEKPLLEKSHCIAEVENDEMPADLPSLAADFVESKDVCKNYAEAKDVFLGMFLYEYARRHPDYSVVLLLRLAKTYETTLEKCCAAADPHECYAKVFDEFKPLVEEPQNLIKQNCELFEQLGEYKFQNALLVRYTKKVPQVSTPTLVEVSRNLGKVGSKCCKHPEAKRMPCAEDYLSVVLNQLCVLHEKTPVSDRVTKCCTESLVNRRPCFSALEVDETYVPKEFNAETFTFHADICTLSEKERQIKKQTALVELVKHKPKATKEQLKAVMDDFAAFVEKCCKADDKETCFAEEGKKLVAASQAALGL
T1 sequence (P02768 25-609): as above

## O=c1cc(-c2ccccc2)oc2c(O)c(O)ccc12 [7,8-dihydroxyflavone]
[1]
  displacement of naproxen from HSA: statistically significant displacement

## CC1=C[C@H]2O[C@@H]3[C@H](O)C[C@](C)([C@@]2(CO)[C@H](O)C1=O)[C@]31CO1 [DON, Deoxynivalenol]
[2]; pH 7.4
  spectral position of the n–π* CD band in protein-free buffer vs. high molar excess of HSA: practically the same
[3]
  warfarin concentration in the filtrate (displacement from site I): did not alter
HepG2 cells
  effect of 10% FBS on the mycotoxin-induced viability loss / toxic effect: did not affect
  effect of 40 g/L HSA on the toxic effect of the mycotoxin: did not affect
[4]
  effect on the fluorescence emission of HSA: did not modify
[5]
  association constant of the complex with HSA: ~46000 L/mol
  quenching effect on HSA: strong quenching effect

## C[C@@H]1Cc2ccc(C(=O)N[C@@H](Cc3ccccc3)C(=O)O)c(O)c2C(=O)O1 [OTB, ochratoxin B]
[3]
  location of the high-affinity binding site on HSA: subdomain IIA
  warfarin concentration in the filtrate (displacement from site I): significantly increased
HepG2 cells
  effect of 10% FBS on the mycotoxin-induced viability loss / toxic effect: significantly reduced
  effect of the mycotoxin on cellular ATP levels in the presence of 40 g/L HSA: did not affect
  relative cytotoxicity: considerably lower toxicity than OTC
[6]
  fluorescence anisotropy in the presence of HSA: strongly increased
[4]
  effect on the emission signal of HSA at 340 nm: decreased
[4]; pH 7.4
  KSV (±SEM) (Stern–Volmer Plot, Figure 2): 0.57 ± 0.05 ×10^6 L/mol
[7]
  HSA concentration enough to achieve complete albumin binding: 5 to 7 µM
  emission signal of the ochratoxin with elevation of HSA concentration: significantly increased
[7]; [8]
  Kd: 725 nM
[7]; [9]
  Kd: ~1000 nM

## CCOC(=O)[C@H](Cc1ccccc1)NC(=O)c1cc(Cl)c2c(c1O)C(=O)O[C@H](C)C2 [OTC, ochratoxin C]
[3]
  location of the high-affinity binding site on HSA: subdomain IIA
  warfarin concentration in the filtrate (displacement from site I): significantly increased
HepG2 cells
  effect of 10% FBS on the mycotoxin-induced viability loss / toxic effect: abolished
  effect of the mycotoxin on cellular ATP levels in the presence of 40 g/L HSA: did not affect
[6]
  fluorescence anisotropy in the presence of HSA: strongly increased
[4]
  effect on the emission signal of HSA at 340 nm: decreased
[4]; pH 7.4
  KSV (±SEM) (Stern–Volmer Plot, Figure 2): 0.46 ± 0.06 ×10^6 L/mol
[7]
  HSA concentration enough to achieve complete albumin binding: 2 to 3 µM
  emission signal of the ochratoxin with elevation of HSA concentration: significantly increased
[7]; [8]
  Kd: 62.4 nM
[7]; [9]
  Kd: ~100 nM

## O=C1C=C2C(=CCOC2O)O1 (centres unmarked) [PAT, Patulin]
Bovine serum albumin
  interaction with bovine serum albumin: weak interaction
[2]
  induced CD features on HSA binding: no induced CD features were observed
[2]; pH 7.4
  UV spectral changes in the presence of HSA: some UV spectral changes could be noticed
[3]
  warfarin concentration in the filtrate (displacement from site I): did not alter
HepG2 cells
  effect of 10% FBS on the mycotoxin-induced viability loss / toxic effect: did not affect
  effect of 40 g/L HSA on the toxic effect of the mycotoxin: did not affect
[4]
  Kd: 72500 nM
  effect on the fluorescence emission of HSA: slightly decreased
[4]; pH 7.4
  KSV (Stern–Volmer quenching constant): 8.23 × 10^3 (±1.12 × 10^3) L/mol
[5]
  KSV of the complex with HSA: 14000 L/mol

## CC(=O)OC[C@]12C[C@H](OC(=O)CC(C)C)C(C)=C[C@H]1O[C@@H]1[C@H](O)[C@@H](OC(C)=O)[C@@]2(C)[C@]12CO2 [T2, T-2 toxin]
[2]
  difference of far-UV CD curves of free HSA and HSA+toxin (secondary structure): no significant difference
  modification of the near-UV CD spectrum of HSA (245–340 nm): unambiguous and relevant spectral modifications could not be registered
[3]
  warfarin concentration in the filtrate (displacement from site I): did not alter
HepG2 cells
  effect of 10% FBS on the mycotoxin-induced viability loss / toxic effect: did not affect
  effect of 40 g/L HSA on the toxic effect of the mycotoxin: did not affect
  relative cytotoxicity: considerably higher compared to PAT or DON
[4]
  effect on the fluorescence emission of HSA: did not modify

## Cc1cc(O)cc2oc(=O)c3c(O)cc(O)cc3c12 [alternariol, reference compound]
[5]
  Ka of the complex with HSA: 400000 L/mol

## O=c1cc(-c2ccccc2)oc2cc(OS(=O)(=O)O)cc(O)c12 [chrysin-7-sulfate]
[1]
  displacement of naproxen from HSA: statistically significant displacement

## O=c1cc(-c2ccccc2)oc2cc(O)cc(O)c12 [chrysin]
[1]
  displacement of naproxen from HSA: statistically significant displacement

## CC1=C2C(=CO[C@H](C)[C@H]2C)C(O)=C(C(=O)O)C1=O [citrinin, reference compound]
[5]
  Ka of the complex with HSA: 200000 L/mol

## C[C@H]1CCCC(=O)CCC/C=C/c2cc(O)cc(O)c2C(=O)O1 [zearalenone, reference compound]
[5]
  Ka of the complex with HSA: 120000 L/mol
